In brackets after ≈: the same amount, converted by molar mass.
Assays:
[1] = test system: Escherichia coli; experiment: Antimicrobial activity against mreB-deficient Escherichia coli YLS-3 expressing beta-lactamase TEM-1 by liquid microdilution method; format: functional
[2] = test system: Escherichia coli; experiment: Antimicrobial activity against Escherichia coli CU164A expressing beta-lactamase TEM-1 by liquid microdilution method; format: functional
[3] = test system: Escherichia coli; experiment: Antimicrobial activity against translocase tatC-deficient Escherichia coli B1LK0A expressing beta-lactamase TEM-1 by liquid microdilution method; format: functional
[4] = test system: Escherichia coli; experiment: Antimicrobial activity against Escherichia coli MC4100A harboring beta-lactamase CTX-M-14 by liquid microdilution method; format: functional
[5] = test system: Escherichia coli; experiment: Antimicrobial activity against Escherichia coli CU164A harboring beta-lactamase CTX-M-14 by liquid microdilution method; format: functional
[6] = test system: Escherichia coli; experiment: Antimicrobial activity against translocase tatC-deficient Escherichia coli B1LK0A harboring beta-lactamase CTX-M-14 by liquid microdilution method; format: functional
[7] = test system: Escherichia coli; experiment: Antimicrobial activity against Escherichia coli MC4100A harboring beta-lactamase L1 by liquid microdilution method; format: functional
[8] = test system: Escherichia coli; experiment: Antimicrobial activity against Escherichia coli CU164A harboring beta-lactamase L1 by liquid microdilution method; format: functional
[9] = test system: Escherichia coli; experiment: Antimicrobial activity against translocase tatC-deficient Escherichia coli B1LK0A harboring beta-lactamase L1 by liquid microdilution method; format: functional
[10] = test system: Escherichia coli; experiment: Antimicrobial activity against Escherichia coli MC4100A harboring beta-lactamase L2 by liquid microdilution method
[11] = test system: Escherichia coli; experiment: Antimicrobial activity against Escherichia coli CU164A harboring beta-lactamase L2 by liquid microdilution method
[12] = test system: Escherichia coli; experiment: Antimicrobial activity against translocase tatC-deficient Escherichia coli B1LK0A harboring beta-lactamase L2 by liquid microdilution method; format: functional
[13] = test system: Escherichia coli; experiment: Antimicrobial activity against Escherichia coli MC4100A harboring beta-lactamase AmpC by liquid microdilution method; format: functional
[14] = test system: Escherichia coli; experiment: Antimicrobial activity against Escherichia coli CU164A harboring beta-lactamase AmpC by liquid microdilution method
[15] = test system: Escherichia coli; experiment: Antimicrobial activity against translocase tatC-deficient Escherichia coli B1LK0A harboring beta-lactamase AmpC by liquid microdilution method
[16] = test system: Escherichia coli; experiment: Antimicrobial activity against Escherichia coli MC4100A harboring empty plasmid by liquid microdilution method; format: functional
[17] = test system: Escherichia coli; experiment: Antimicrobial activity against Escherichia coli CU164A harboring empty plasmid by liquid microdilution method; format: functional
[18] = test system: Escherichia coli; experiment: Antimicrobial activity against translocase tatC-deficient Escherichia coli B1LK0A harboring empty plasmid by liquid microdilution method; format: functional
[19] = test system: Escherichia coli; experiment: Antimicrobial activity against Escherichia coli MC4100A expressing beta-lactamase TEM-1 by liquid microdilution method; format: functional
[20] = test system: Escherichia coli; experiment: Antimicrobial activity against mreB-deficient Escherichia coli YLS-3 harboring beta-lactamase CTX-M-14 by liquid microdilution method; format: functional
[21] = test system: Escherichia coli; experiment: Antimicrobial activity against mreB-deficient Escherichia coli YLS-3 harboring beta-lactamase L1 by liquid microdilution method
[22] = test system: Escherichia coli; experiment: Antimicrobial activity against mreB-deficient Escherichia coli YLS-3 harboring beta-lactamase AmpC by liquid microdilution method
[23] = test system: Escherichia coli; experiment: Antimicrobial activity against mreB-deficient Escherichia coli YLS-3 harboring empty plasmid by liquid microdilution method; format: functional
[24] = test system: Escherichia coli; experiment: Antimicrobial activity against mreB-deficient Escherichia coli YLS-3 harboring beta-lactamase L2 by liquid microdilution method; format: functional

SMILES	MIC [1]	MIC [2]	MIC [3]	MIC [4]	MIC [5]	MIC [6]	MIC [7]	MIC [8]	MIC [9]	MIC [10]	MIC [11]	MIC [12]	MIC [13]	MIC [14]	MIC [15]	MIC [19]	MIC [20]	MIC [21]	MIC [22]	MIC [24]	further results
CC1(C)S[C@@H]2[C@H](NC(=O)[C@H](N)c3ccc(O)cc3)C(=O)N2[C@H]1C(=O)O [AMOXICILLIN]	256 µg/mL (≈ 701 µM)	1020 µg/mL (≈ 2800 µM)	512 µg/mL (≈ 1400 µM)	2050 µg/mL (≈ 5600 µM)	2050 µg/mL (≈ 5600 µM)	2050 µg/mL (≈ 5600 µM)	1020 µg/mL (≈ 2800 µM)	512 µg/mL (≈ 1400 µM)	512 µg/mL (≈ 1400 µM)	64 µg/mL (≈ 175 µM)	512 µg/mL (≈ 1400 µM)	4 µg/mL (≈ 10.9 µM)	512 µg/mL (≈ 1400 µM)	512 µg/mL (≈ 1400 µM)	512 µg/mL (≈ 1400 µM)	1020 µg/mL (≈ 2800 µM)	1020 µg/mL (≈ 2800 µM)	512 µg/mL (≈ 1400 µM)	128 µg/mL (≈ 350 µM)	256 µg/mL (≈ 701 µM)	MIC [16]: 4 µg/mL (≈ 10.9 µM); MIC [17]: 4 µg/mL (≈ 10.9 µM); MIC [18]: 4 µg/mL (≈ 10.9 µM); MIC [23]: 4 µg/mL (≈ 10.9 µM)
CO/N=C(\C(=O)N[C@@H]1C(=O)N2C(C(=O)O)=C(COC(C)=O)CS[C@H]12)c1csc(N)n1 [CEFOTAXIME]	≤ 0.06 µg/mL	≤ 0.06 µg/mL	≤ 0.06 µg/mL	16 µg/mL (≈ 35.1 µM)	16 µg/mL (≈ 35.1 µM)	16 µg/mL (≈ 35.1 µM)	1 µg/mL (≈ 2.2 µM)	1 µg/mL (≈ 2.2 µM)	1 µg/mL (≈ 2.2 µM)	2 µg/mL (≈ 4.39 µM)	2 µg/mL (≈ 4.39 µM)		0.5 µg/mL (≈ 1.1 µM)	0.5 µg/mL (≈ 1.1 µM)	0.5 µg/mL (≈ 1.1 µM)	≤ 0.06 µg/mL	4 µg/mL (≈ 8.78 µM)	0.06 µg/mL (≈ 0.132 µM)	0.12 µg/mL (≈ 0.263 µM)	0.06 µg/mL (≈ 0.132 µM)	
CC(C)(O/N=C(\C(=O)N[C@@H]1C(=O)N2C(C(=O)[O-])=C(C[n+]3ccccc3)CS[C@H]12)c1csc(N)n1)C(=O)O [CEFTAZIDIME]	≤ 0.06 µg/mL	≤ 0.06 µg/mL	≤ 0.06 µg/mL	1 µg/mL (≈ 1.83 µM)	1 µg/mL (≈ 1.83 µM)	1 µg/mL (≈ 1.83 µM)	8 µg/mL (≈ 14.6 µM)	8 µg/mL (≈ 14.6 µM)	8 µg/mL (≈ 14.6 µM)	4 µg/mL (≈ 7.32 µM)	4 µg/mL (≈ 7.32 µM)	≤ 0.06 µg/mL	0.25 µg/mL (≈ 0.457 µM)	0.25 µg/mL (≈ 0.457 µM)	0.25 µg/mL (≈ 0.457 µM)	≤ 0.06 µg/mL	0.5 µg/mL (≈ 0.915 µM)	0.06 µg/mL (≈ 0.11 µM)	0.06 µg/mL (≈ 0.11 µM)	0.06 µg/mL (≈ 0.11 µM)	MIC [16]: ≤ 0.06 µg/mL; MIC [17]: ≤ 0.06 µg/mL; MIC [18]: ≤ 0.06 µg/mL; MIC [23]: ≤ 0.06 µg/mL
CC(=O)OCC1=C(C(=O)O)N2C(=O)[C@@H](NC(=O)Cc3cccs3)[C@H]2SC1 [CEPHALOTHIN]	8 µg/mL (≈ 20.2 µM)	32 µg/mL (≈ 80.7 µM)	16 µg/mL (≈ 40.4 µM)	1020 µg/mL (≈ 2580 µM)	1020 µg/mL (≈ 2580 µM)	512 µg/mL (≈ 1290 µM)	128 µg/mL (≈ 323 µM)	128 µg/mL (≈ 323 µM)	128 µg/mL (≈ 323 µM)	256 µg/mL (≈ 646 µM)	256 µg/mL (≈ 646 µM)	≤ 2 µg/mL	1020 µg/mL (≈ 2580 µM)	512 µg/mL (≈ 1290 µM)	256 µg/mL (≈ 646 µM)	32 µg/mL (≈ 80.7 µM)	128 µg/mL (≈ 323 µM)	32 µg/mL (≈ 80.7 µM)	256 µg/mL (≈ 646 µM)	64 µg/mL (≈ 161 µM)	MIC [16]: 4 µg/mL (≈ 10.1 µM); MIC [17]: 4 µg/mL (≈ 10.1 µM); MIC [18]: ≤ 2 µg/mL; MIC [23]: ≤ 2 µg/mL
CCN1CCN(C(=O)N[C@@H](C(=O)N[C@@H]2C(=O)N3[C@@H]2SC(C)(C)[C@@H]3C(=O)O)c2ccccc2)C(=O)C1=O [PIPERACILLIN]	32 µg/mL (≈ 61.8 µM)	256 µg/mL (≈ 495 µM)	128 µg/mL (≈ 247 µM)	512 µg/mL (≈ 989 µM)	512 µg/mL (≈ 989 µM)	512 µg/mL (≈ 989 µM)	64 µg/mL (≈ 124 µM)	32 µg/mL (≈ 61.8 µM)	32 µg/mL (≈ 61.8 µM)	128 µg/mL (≈ 247 µM)	128 µg/mL (≈ 247 µM)	≤ 2 µg/mL	32 µg/mL (≈ 61.8 µM)	32 µg/mL (≈ 61.8 µM)	32 µg/mL (≈ 61.8 µM)	512 µg/mL (≈ 989 µM)	128 µg/mL (≈ 247 µM)	32 µg/mL (≈ 61.8 µM)	16 µg/mL (≈ 30.9 µM)	32 µg/mL (≈ 61.8 µM)	MIC [16]: 2 µg/mL (≈ 3.86 µM); MIC [17]: 2 µg/mL (≈ 3.86 µM); MIC [18]: ≤ 2 µg/mL; MIC [23]: ≤ 2 µg/mL
